From PMC5079767 (Bioorganic & medicinal chemistry letters, 2016)
Like-named read-outs stand apart in the source and are kept apart here.

How the values were obtained:
[1] = tested on: Escherichia coli, Bacillus subtilis, Mycobacterium smegmatis; settings: cited from earlier work
[2] = target: cysteine adenylation domain of HMWP2 (residues 1–1491) (Yersinia pestis, UniProt A0A2S9PH42); type: biochemical
Y. pestis [3] = settings: cited from earlier work
[4] = tested on: aminoacyl-tRNA synthetases; type: biochemical, rabbit
Y. pestis [5] = type: cell-based, Yersinia pestis

Chain of cysteine adenylation domain of HMWP2 (residues 1–1491) (A0A2S9PH42 1-1491 limits assumed): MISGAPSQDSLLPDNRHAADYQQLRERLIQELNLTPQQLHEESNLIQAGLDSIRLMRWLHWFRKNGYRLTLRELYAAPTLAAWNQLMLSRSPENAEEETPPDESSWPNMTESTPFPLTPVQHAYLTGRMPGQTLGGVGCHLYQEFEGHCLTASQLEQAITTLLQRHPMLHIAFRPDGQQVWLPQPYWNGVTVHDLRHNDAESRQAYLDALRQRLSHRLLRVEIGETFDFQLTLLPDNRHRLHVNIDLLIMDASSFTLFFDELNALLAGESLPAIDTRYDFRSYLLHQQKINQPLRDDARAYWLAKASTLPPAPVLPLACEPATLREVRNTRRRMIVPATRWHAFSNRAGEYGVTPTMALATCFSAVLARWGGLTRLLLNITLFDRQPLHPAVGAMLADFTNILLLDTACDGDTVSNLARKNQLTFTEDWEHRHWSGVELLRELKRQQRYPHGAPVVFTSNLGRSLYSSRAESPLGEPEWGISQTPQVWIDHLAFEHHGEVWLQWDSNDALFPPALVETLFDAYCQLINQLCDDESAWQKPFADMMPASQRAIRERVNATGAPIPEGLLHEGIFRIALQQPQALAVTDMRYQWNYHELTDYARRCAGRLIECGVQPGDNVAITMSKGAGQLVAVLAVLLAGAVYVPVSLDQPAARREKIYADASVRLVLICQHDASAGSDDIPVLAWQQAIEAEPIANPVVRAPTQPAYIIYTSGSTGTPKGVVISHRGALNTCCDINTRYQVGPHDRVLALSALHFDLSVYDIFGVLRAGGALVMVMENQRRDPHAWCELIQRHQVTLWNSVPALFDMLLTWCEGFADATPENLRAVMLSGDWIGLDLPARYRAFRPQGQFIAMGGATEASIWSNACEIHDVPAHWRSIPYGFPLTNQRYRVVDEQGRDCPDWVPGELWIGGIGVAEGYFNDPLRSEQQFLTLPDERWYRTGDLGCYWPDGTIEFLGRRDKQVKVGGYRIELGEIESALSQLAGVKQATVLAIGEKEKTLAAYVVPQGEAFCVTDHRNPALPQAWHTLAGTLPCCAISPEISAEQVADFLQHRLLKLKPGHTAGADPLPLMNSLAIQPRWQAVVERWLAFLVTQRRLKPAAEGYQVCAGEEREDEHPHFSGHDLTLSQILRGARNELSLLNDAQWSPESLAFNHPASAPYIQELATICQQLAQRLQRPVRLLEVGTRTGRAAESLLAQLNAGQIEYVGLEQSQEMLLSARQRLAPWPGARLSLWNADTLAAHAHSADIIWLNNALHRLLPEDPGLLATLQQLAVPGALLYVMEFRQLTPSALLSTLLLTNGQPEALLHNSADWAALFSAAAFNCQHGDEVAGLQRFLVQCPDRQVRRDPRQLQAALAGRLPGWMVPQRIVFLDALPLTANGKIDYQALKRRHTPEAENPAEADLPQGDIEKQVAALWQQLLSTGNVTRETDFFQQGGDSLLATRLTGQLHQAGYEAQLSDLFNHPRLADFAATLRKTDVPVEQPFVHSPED

Compound: C[C@H](N)C(=O)NS(=O)(=O)OC[C@H]1O[C@@H](n2cnc3c(N)ncnc32)[C@H](O)[C@@H]1O [4a, alanyl-AMS]
- penetration of bacteria above the limits of detection ([1]; E. coli, B. subtilis, M. smegmatis): did not penetrate

Compound: Nc1ncnc2c1ncn2[C@@H]1O[C@H](COS(=O)(=O)NC(=O)[C@@H](N)CS)[C@@H](O)[C@H]1O [4c, cysteyl-AMS]
- increase in HMWP2 inhibition on inclusion of β-thio group [2]: ≈ 2 orders of magnitude
- increase in inhibitory potency by β-thiol side chain [2]: 30–60 fold

Compound: C[C@H](O)C(=O)NS(=O)(=O)OC[C@H]1O[C@@H](n2cnc3c(N)ncnc32)[C@H](O)[C@@H]1O [4b, lactyl-AMS]
- intracellular concentration ([1]; all three strains (E. coli, B. subtilis, M. smegmatis), 100 µM extracellular concentration applied): 28 to 53 µM

Compound: salicyl-AMS
- inhibition of yersiniabactin production (Y. pestis [3]): blocks yersiniabactin production

Compound: Nc1ncnc2c1ncn2[C@@H]1O[C@H](COS(=O)(=O)NC(=O)[C@@H](O)CS)[C@@H](O)[C@H]1O [4d, α-hydroxy-cysteyl-AMS]
- IC50 relative to alanyl-AMS (4a) [2]: ≤ 15 fold
- increase in HMWP2 inhibition on inclusion of β-thio group [2]: ≈ 2 orders of magnitude
- increase in inhibitory potency by β-thiol side chain [2]: 30–60 fold

Compound: Nc1ncnc2c1nc1n2[C@@H]2O[C@H](COS(=O)(=O)NC(=O)[C@@H](O)CCC1)[C@@H](O)[C@H]2O [5b, cyclo-lactyl-AMS]
- inhibitory activity in in vitro translation assay [4]: inactive

Compound: Nc1ncnc2c1nc1n2[C@@H]2O[C@H](COS(=O)(=O)NC(=O)[C@@H](N)CCC1)[C@@H](O)[C@H]2O [5a, cyclo-alanyl-AMS]
- inhibitory activity in in vitro translation assay [4]: inactive
- inhibition of yersiniabactin production (Y. pestis [5]): did not inhibit
